Assay results: patent publication US10105357B2, “Indication of antibiotic drugs for preparation of cancer inhibition pharmaceutical composition” (LAUNX BIOMEDICAL CO., LTD., priority 2014, dated 2018)
Counter-ions that a name gives are not always drawn. Like-named read-outs stand apart in the source and are kept apart here.

Columns and labels:
Format in all cases: cell-based, human
cancer cell lines = test: Cell viability analysis (WST-1) on cancer cell lines; conditions: drug 10 μM, 72 hours, WST-1; Table 3
[1] = tested on: HI650 (Lung Adenocarcinoma); test: Cell viability analysis, lung cancer HI650; conditions: Homo sapiens, NCI-H1650, 72 h
[2] = tested on: A549 (Lung Adenocarcinoma); test: Cell viability analysis, lung cancer A549; conditions: Homo sapiens, A549, 72 h
[3] = tested on: AGS (Gastric Adenocarcinoma); test: Cell viability analysis, gastric cancer AGS; conditions: Homo sapiens, 72 h
[4] = tested on: MKN-45 (Gastric Adenocarcinoma); test: Cell viability analysis, gastric cancer MKN-45; conditions: Homo sapiens, MKN-45, 72 h
[5] = tested on: HepG2 (Hepatocellular Carcinoma); test: Cell viability analysis, hepatic cancer HepG2; conditions: Homo sapiens, HepG2, 72 h
[6] = tested on: LoVo (Colorectal Adenocarcinoma); test: Cell viability analysis, colon cancer LoVo; conditions: Homo sapiens, LoVo, 72 h, read-out: cell viability (survival rate), LoVo, drug 10 μM, 72 hours, WST-1, OD450 nm
[7] = tested on: A375 (Amelanotic Melanoma); test: Cell viability analysis, skin cancer A375; conditions: Homo sapiens, A-375, 72 h
[8] = tested on: HeLa (Cervix Adenocarcinoma); test: Cell viability analysis, cervical cancer HeLa; conditions: Homo sapiens, HeLa, 72 h
[9] = tested on: PC3 (p53−) (Prostate Adenocarcinoma); test: Cell viability analysis, prostate cancer PC3; conditions: Homo sapiens, 72 h
[10] = tested on: TSGH-8301 (Urinary Bladder Carcinoma); test: Cell viability analysis, bladder cancer TSGH-8301; conditions: Homo sapiens, 72 h
[11] = tested on: MCF7 (Mammary Gland, Adenocarcinoma); test: Cell viability analysis, breast cancer MCF7; conditions: Homo sapiens, MCF7, 72 h
[12] = tested on: HL-60 (Acute Promyelocytic Leukemia); test: Cell viability analysis, leukemia HL-60; conditions: Homo sapiens, HL-60, 72 h
[13] = drug 10 μM, 72 hours, WST-1, OD450 nm, read-out: cell viability (survival rate), H1650
[14] = drug 10 μM, 72 hours, WST-1, OD450 nm, read-out: cell viability (survival rate), A549
[15] = drug 10 μM, 72 hours, WST-1, OD450 nm, read-out: cell viability (survival rate), AGS
[16] = drug 10 μM, 72 hours, WST-1, OD450 nm, read-out: cell viability (survival rate), MKN-45
[17] = drug 10 μM, 72 hours, WST-1, OD450 nm, read-out: cell viability (survival rate), HepG2
[18] = drug 10 μM, 72 hours, WST-1, OD450 nm, read-out: cell viability (survival rate), A375
[19] = drug 10 μM, 72 hours, WST-1, OD450 nm, read-out: cell viability (survival rate), HeLa
[20] = drug 10 μM, 72 hours, WST-1, OD450 nm, read-out: cell viability (survival rate), PC3
[21] = drug 10 μM, 72 hours, WST-1, OD450 nm, read-out: cell viability (survival rate), TSGH
[22] = drug 10 μM, 72 hours, WST-1, OD450 nm, read-out: cell viability (survival rate), MCF7
[23] = drug 10 μM, 72 hours, WST-1, OD450 nm, read-out: cell viability (survival rate), HL-60
[24] = read-out: cell viability (survival rate), H1650, drug 10 μM, 72 hours, WST-1, OD450 nm
[25] = read-out: cell viability (survival rate), A549, drug 10 μM, 72 hours, WST-1, OD450 nm
[26] = read-out: cell viability (survival rate), AGS, drug 10 μM, 72 hours, WST-1, OD450 nm
[27] = read-out: cell viability (survival rate), MKN-45, drug 10 μM, 72 hours, WST-1, OD450 nm
[28] = read-out: cell viability (survival rate), HepG2, drug 10 μM, 72 hours, WST-1, OD450 nm
[29] = read-out: cell viability (survival rate), A375, drug 10 μM, 72 hours, WST-1, OD450 nm
[30] = read-out: cell viability (survival rate), HeLa, drug 10 μM, 72 hours, WST-1, OD450 nm
[31] = read-out: cell viability (survival rate), PC3, drug 10 μM, 72 hours, WST-1, OD450 nm
[32] = read-out: cell viability (survival rate), TSGH, drug 10 μM, 72 hours, WST-1, OD450 nm
[33] = read-out: cell viability (survival rate), MCF7, drug 10 μM, 72 hours, WST-1, OD450 nm
[34] = read-out: cell viability (survival rate), HL-60, drug 10 μM, 72 hours, WST-1, OD450 nm

Row | Structure (SMILES) | inhibition effect on different cancer cell lines (cancer cell lines) | viability at 10 µM [6] | viability at 10 µM [1, 24] | viability at 10 µM [2, 25] | viability at 10 µM [3, 26] | viability at 10 µM [4, 27] | viability at 10 µM [5, 28] | viability at 10 µM [7, 29] | viability at 10 µM [8, 30] | viability at 10 µM [9, 31] | viability at 10 µM [10, 32] | viability at 10 µM [11, 33] | viability at 10 µM [12, 34] | also measured
1 | COc1c(N2CCNC(C)C2)c(F)cc2c(=O)c(C(=O)O)cn(C3CC3)c12 (stereo not drawn) [Gatifloxacin] | significant inhibition effect | 98.3% |  |  |  |  |  |  |  |  |  |  |  | viability at 10 µM [1, 13]: 47.2%; viability at 10 µM [2, 14]: 96%; viability at 10 µM [3, 15]: 71.4%; viability at 10 µM [4, 16]: 84.2%; viability at 10 µM [5, 17]: 65.6%; viability at 10 µM [7, 18]: 63.3%; viability at 10 µM [8, 19]: 84.1%; viability at 10 µM [9, 20]: 82.2%; viability at 10 µM [10, 21]: 65%; viability at 10 µM [11, 22]: 130%; viability at 10 µM [12, 23]: 100%
2 | CC(=O)N1CCN(c2ccc(OCC3COC(Cn4ccnc4)(c4ccc(Cl)cc4Cl)O3)cc2)CC1 (stereo not drawn) [Ketoconazole] | significant inhibition effect | 90.3% | 46.1% | 75.7% | 65.7% | 77% | 88.7% | 49.2% | 84.3% | 80.1% | 107% | 118% | 88.3% | 
3 | CO[C@H]1/C=C/O[C@@]2(C)Oc3c(C)c(O)c4c(c3C2=O)C2=NC3(CCN(CC(C)C)CC3)NC2=C(NC(=O)/C(C)=C\C=C\[C@H](C)[C@H](O)[C@@H](C)[C@@H](O)[C@@H](C)[C@H](OC(C)=O)[C@@H]1C)C4=O [Rifabutin (Mycobutin), Rifabutin] | significant inhibition effect | 104% | 88.2% | 53.1% | 115% | 62.4% | 148% | 84% | 52.8% | 72.6% | 82.5% | 48.8% | 100% | 
4 | c1ccc(-c2ccc(C(c3ccccc3)n3ccnc3)cc2)cc1 (stereo not drawn) [Bifonazole] | significant inhibition effect | 81.1% | 55.9% | 79.3% | 64.3% | 50.5% | 109% | 94.9% | 67.2% | 78.2% | 82.1% | 73.3% | 119% | 
5 | Nc1nc(=O)n([C@@H]2CS[C@H](CO)O2)cc1F [Emtricitabine (Emtriva), Emtricitabine] | significant inhibition effect | 82.6% | 61% | 86.9% | 48% | 62.8% | 110% | 84% | 79.6% | 77.1% | 85.3% | 74% | 119% | 
6 | CCC(C)(C)c1ccc(CC(C)CN2C[C@@H](C)O[C@@H](C)C2)cc1 (stereo partly drawn) [Amorolfine Hydrochloride] | significant inhibition effect | 99.7% | 79.6% | 104% | 94.4% | 65.1% | 91.6% | 98.6% | 84.6% | 104% | 88.5% | 104% | 104% | 
7 | Clc1ccccc1C(c1ccccc1)(c1ccccc1)n1ccnc1 [Clotrimazole (Canesten), Clotrimazole] | significant inhibition effect | 94.1% | 75.9% | 85.5% | 85.7% | 53.9% | 102% | 81.4% | 90% | 69.3% | 50.8% | 56.8% | 106% | 
8 | Nc1ccn(C[C@@H](CO)OCP(=O)(O)O)c(=O)n1 [Cidofovir (Vistide), Cidofovir] | significant inhibition effect | 82.3% |  |  |  |  |  |  |  |  |  |  |  | viability at 10 µM [1, 13]: 53.3%; viability at 10 µM [2, 14]: 58.3%; viability at 10 µM [3, 15]: 39.6%; viability at 10 µM [4, 16]: 56.9%; viability at 10 µM [5, 17]: 97.2%; viability at 10 µM [7, 18]: 82.6%; viability at 10 µM [8, 19]: 82.1%; viability at 10 µM [9, 20]: 63.9%; viability at 10 µM [10, 21]: 49.8%; viability at 10 µM [11, 22]: 78.3%; viability at 10 µM [12, 23]: 112%
9 | Nc1ncnc2c1ncn2[C@@H]1O[C@H](CO)[C@@H](O)[C@@H]1O [Vidarabine (Vira-A), Vidarabine] | significant inhibition effect | 72.9% | 78.8% | 32.2% | 104% | 44.4% | 74.2% | 48.1% | 47.7% | 70.6% | 68.6% | 36.5% | 99% | 
10 | CO[C@H]1/C=C/O[C@@]2(C)Oc3c(C)c(O)c4c(O)c(c(/C=N/N5CCN(C)CC5)c(O)c4c3C2=O)NC(=O)/C(C)=C\C=C\[C@H](C)[C@H](O)[C@@H](C)[C@@H](O)[C@@H](C)[C@H](OC(C)=O)[C@@H]1C [Rifampin (Rifadin, Rimactane), Rifampin] | significant inhibition effect | 83.9% |  |  |  |  |  |  |  |  |  |  |  | viability at 10 µM [1, 13]: 89.1%; viability at 10 µM [2, 14]: 45.2%; viability at 10 µM [3, 15]: 111%; viability at 10 µM [4, 16]: 61.1%; viability at 10 µM [5, 17]: 98.5%; viability at 10 µM [7, 18]: 61.6%; viability at 10 µM [8, 19]: 58.8%; viability at 10 µM [9, 20]: 69.9%; viability at 10 µM [10, 21]: 108%; viability at 10 µM [11, 22]: 39.7%; viability at 10 µM [12, 23]: 105%
11 | COc1ccc2c(c1)c(CC(=O)OCC(=O)O)c(C)n2C(=O)c1ccc(Cl)cc1 [Acemetacin (Emflex), Acemetacin] | significant inhibition effect | 94.7% | 78.2% | 88.1% | 69% | 103% | 110% | 68.4% | 70.9% | 90.5% | 99.4% | 87.3% | 120% | 
12 | Cc1cn([C@@H]2C[C@@H](O)[C@H](CO)O2)c(=O)[nH]c1=O [Telbivudine (Sebivo, Tyzeka), Telbivudine] | significant inhibition effect | 65.3% | 67.5% | 43.7% | 27.5% | 36.2% | 94.4% | 57.5% | 51.9% | 53.6% | 50.4% | 31.9% | 100% | 
